In US20190106460A1, “BINDING INHIBITORS OF THE BETA. TRANSDUCIN REPEAT-CONTAINING PROTEIN” (priority 2011, published 2019):
Read-outs that look alike come from different tables or passages of the source. Starred links: 1 amine or outer side, 2 acyl side, 3 side chain; linkers in the order of their positions; H or OH if unused. Non-standard residues stand in square brackets, D forms with d. Residues, ends and D or L forms follow the SMILES beside them. *: point of attachment. Phe(3-Cl) = N[C@@H](Cc1cccc(Cl)c1)C(=O)O; Phe(3-F) = N[C@@H](Cc1cccc(F)c1)C(=O)O; 1Nal = N[C@@H](Cc1cccc2ccccc12)C(=O)O; NMeE = CN[C@@H](CCC(=O)O)C(=O)O; X1 = CCCCOc1ccc(S(=O)(=O)*)cc1; Suc = O=C(CCC(=O)[*:2])[*:1]; Tos = Cc1ccc(S(=O)(=O)*)cc1; Moc = COC(=O)*

Columns and labels:
βTrCP [1] = molecular target: βTrCP (Homo sapiens, UniProt Q9Y297); assay: Fluorescence polarisation (FP) binding assay with fluorescein-tagged IκB peptide
Target sequence in this assay (P63208 whole entry partner, one chain of several): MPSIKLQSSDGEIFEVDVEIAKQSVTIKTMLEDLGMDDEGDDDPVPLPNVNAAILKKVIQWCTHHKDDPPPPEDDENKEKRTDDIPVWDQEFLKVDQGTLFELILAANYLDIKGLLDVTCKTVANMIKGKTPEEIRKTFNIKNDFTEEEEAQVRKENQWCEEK

βTrCP [2] = molecular target: T1, βTrCP (Homo sapiens, UniProt Q9Y297); assay: Biotin pull down assay with biotinylated IκB peptide; type: binding; conditions: for Biotin Pulldown Assay 10 μM: 10 μM compound; for Biotin Pulldown Assay 100 μM: 100 μM compound
T1 sequence (Q9Y297 1-605): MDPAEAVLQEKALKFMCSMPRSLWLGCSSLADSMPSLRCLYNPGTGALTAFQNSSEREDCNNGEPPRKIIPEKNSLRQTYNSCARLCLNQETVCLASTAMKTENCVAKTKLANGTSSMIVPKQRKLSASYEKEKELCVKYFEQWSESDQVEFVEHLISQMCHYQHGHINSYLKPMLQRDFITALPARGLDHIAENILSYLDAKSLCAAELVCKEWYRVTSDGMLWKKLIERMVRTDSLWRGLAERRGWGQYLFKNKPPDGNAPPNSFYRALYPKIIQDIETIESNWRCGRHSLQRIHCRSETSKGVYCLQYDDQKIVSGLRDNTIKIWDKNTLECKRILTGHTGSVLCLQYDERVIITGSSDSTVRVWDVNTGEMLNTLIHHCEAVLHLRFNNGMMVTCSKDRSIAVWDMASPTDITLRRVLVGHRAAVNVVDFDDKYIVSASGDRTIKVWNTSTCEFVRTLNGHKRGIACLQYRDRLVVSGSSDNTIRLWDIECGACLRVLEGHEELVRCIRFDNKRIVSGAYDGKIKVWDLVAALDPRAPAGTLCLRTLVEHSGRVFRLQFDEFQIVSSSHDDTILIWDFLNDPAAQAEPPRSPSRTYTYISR

FBW7/Skp1 = FBW7/Skp1 (Homo sapiens, UniProt Q969H0); assay: Selectivity assay vs other E3s: Fbw7; type: biochemical; conditions: for inhibition at 100 µM: value in brackets, read-out: % Inhibition Fbw7 @ (100 μM); for inhibition at 10 µM: read-out: % Inhibition Fbw7 @ 10 μM
FBW7/Skp1, sequence (Q969H0 whole entry, species assumed): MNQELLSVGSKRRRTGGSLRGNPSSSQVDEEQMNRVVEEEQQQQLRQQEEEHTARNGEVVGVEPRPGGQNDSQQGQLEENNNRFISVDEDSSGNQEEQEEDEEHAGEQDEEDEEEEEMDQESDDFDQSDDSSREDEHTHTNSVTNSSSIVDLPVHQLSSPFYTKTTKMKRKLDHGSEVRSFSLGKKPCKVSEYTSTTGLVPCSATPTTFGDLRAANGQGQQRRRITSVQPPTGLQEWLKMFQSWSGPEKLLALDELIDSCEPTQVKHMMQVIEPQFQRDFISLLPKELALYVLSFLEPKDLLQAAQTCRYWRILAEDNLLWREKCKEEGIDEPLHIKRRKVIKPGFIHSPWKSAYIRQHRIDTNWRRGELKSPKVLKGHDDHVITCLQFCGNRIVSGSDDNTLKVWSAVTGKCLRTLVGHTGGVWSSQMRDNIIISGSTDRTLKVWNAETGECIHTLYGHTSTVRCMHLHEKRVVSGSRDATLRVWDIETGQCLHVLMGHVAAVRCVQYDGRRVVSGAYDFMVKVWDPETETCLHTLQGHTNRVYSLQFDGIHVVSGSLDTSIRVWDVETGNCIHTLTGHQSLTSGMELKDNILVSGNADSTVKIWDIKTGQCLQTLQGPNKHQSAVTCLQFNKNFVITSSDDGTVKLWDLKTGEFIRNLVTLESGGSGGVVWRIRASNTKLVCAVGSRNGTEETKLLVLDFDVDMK
FBW7/Skp1, sequence (P63208 whole entry partner, species assumed): as the sequence (P63208 whole entry partner, one chain of several) above
FBW7/Skp1, sequence (Q13616 whole entry partner, species assumed): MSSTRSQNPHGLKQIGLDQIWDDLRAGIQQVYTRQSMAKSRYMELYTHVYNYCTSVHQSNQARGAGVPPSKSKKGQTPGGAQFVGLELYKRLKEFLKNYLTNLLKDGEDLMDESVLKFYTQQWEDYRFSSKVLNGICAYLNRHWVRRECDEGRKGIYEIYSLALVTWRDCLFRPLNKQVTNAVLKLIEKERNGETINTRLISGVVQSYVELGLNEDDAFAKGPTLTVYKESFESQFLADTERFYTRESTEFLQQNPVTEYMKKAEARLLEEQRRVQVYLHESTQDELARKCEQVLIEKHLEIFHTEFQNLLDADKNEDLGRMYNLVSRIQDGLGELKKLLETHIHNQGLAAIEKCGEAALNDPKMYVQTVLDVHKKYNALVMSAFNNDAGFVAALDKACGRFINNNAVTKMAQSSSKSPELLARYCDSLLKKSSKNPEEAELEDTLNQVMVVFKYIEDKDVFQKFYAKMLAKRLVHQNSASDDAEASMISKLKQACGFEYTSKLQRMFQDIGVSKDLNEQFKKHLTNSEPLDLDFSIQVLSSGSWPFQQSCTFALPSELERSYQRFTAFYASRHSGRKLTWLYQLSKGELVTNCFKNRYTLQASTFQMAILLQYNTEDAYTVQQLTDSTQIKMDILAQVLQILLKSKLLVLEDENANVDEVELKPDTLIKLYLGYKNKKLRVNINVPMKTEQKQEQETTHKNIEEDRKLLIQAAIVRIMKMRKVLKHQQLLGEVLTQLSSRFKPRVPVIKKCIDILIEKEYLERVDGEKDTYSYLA
FBW7/Skp1, sequence (P62877 whole entry partner, species assumed): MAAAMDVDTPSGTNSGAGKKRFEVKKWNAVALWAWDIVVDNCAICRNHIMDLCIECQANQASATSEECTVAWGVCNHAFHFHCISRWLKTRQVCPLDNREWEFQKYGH
Description: (§1) βTrCP Ubiquitination Assay and Selectivity Assays
(§2) Master mixes were prepared in a 50 mM Herpes buffer at pH 7.5, in 75 mM NaCl and 1 mM DTT without Mg or ATP and peptides were added to a final concentration of 100 μM. Reactions were incubated at room temperature for 30 minutes and then Mg/ATP was added to the mix. Reactions were further incubated for an additional 60 minutes and then stopped by adding SDS gel loading buffer and boiled for 5 minutes. Reactions were run on SDS-PAGE (10%) and transferred to nitrocellulose membranes and probed with HRP-Streptavidin.
FBW7 selectivity assays were performed in the same manner except using FBW7/Skp1 as E3 component and cyclin E as the substrate. Blots were probed using anti-cyclin E antibody.
(§3) Candidate compounds were tested for inhibition of Fbw7 and Skp2 as described above.

β-TrCP1/Skp1 = β-TrCP1/Skp1 (Homo sapiens, UniProt Q9Y297); assay: βTrCP ubiquitination assay (Ub assay); type: biochemical; conditions: for Ub Assay 10 μM: 10 μM compound; for Ub Assay 100 μM: 100 μM compound
β-TrCP1/Skp1, sequence (P63208 2-163 partner limits assumed, one chain of several): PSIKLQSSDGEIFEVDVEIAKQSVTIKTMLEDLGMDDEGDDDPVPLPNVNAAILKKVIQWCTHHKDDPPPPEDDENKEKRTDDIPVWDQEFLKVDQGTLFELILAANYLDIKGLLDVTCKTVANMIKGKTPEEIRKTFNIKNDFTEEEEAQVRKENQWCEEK
Description: as §1
0.5 μM Peptide substrate (biotin)
as §2
Candidate compounds were tested in duplicate at both 10 and 100 μM against the E3 ligase cascades βTrCP(IκBα) and βTrCP(β-catenin). The E3 assays were carried out according to the component concentrations detailed in Table 9. In each case the E2 was HA,6His-UbcH3-(hu,FL), the E1 was 6His-UBE1-(hu,FL) and the ubiquitin (Sigma U6253) was biotinylated at a 5:1 ratio. Substrate phosphorylation was performed in the absence of compound; consequently any observed signal modulation should not reflect inhibition of the up-stream kinase reaction. All other steps (E1, E2 and substrate ubiquitination) were carried out in the presence of compound. The stopped reaction mix (10 μl) was added to an ECL plate loaded with anti c-Myc ( 1/500 Dilution, Millipore 05-724) and blocked with 5% BSA. Binding was allowed to proceed for 1 hour at RT before a wash step (3 40 μl PBST washes). Detection was achieved by binding SA-Ru TAG at 1 μg/ml (1 hour @ RT, 3 40 μl PBST washes) before reading on an MSD Sector Imager 6000.
Assays were performed as described above

Skp2 = Skp2 (Homo sapiens, UniProt Q13309); assay: Selectivity assay vs other E3s: Skp2; type: biochemical; conditions: for inhibition at 100 µM: value in brackets, read-out: % Inhibition Skp2 @ (100 μM); for inhibition at 10 µM: read-out: % Inhibition Skp2 @ 10 μM
Skp2, sequence (Q13309 whole entry, species assumed): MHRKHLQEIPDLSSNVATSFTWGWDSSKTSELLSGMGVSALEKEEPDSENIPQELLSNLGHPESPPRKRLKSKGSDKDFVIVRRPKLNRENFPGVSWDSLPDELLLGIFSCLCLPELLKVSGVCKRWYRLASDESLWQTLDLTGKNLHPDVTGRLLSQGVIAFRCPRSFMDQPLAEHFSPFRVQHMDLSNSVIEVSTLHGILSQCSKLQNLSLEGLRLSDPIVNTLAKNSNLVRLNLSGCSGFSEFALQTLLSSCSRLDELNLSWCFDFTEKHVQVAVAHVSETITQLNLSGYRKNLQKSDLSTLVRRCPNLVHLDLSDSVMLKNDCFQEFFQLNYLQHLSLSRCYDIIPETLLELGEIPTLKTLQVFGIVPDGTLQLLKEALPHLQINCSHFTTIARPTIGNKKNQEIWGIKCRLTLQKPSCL
Skp2, sequence (P63208 whole entry partner, species assumed): as the sequence (P63208 whole entry partner, one chain of several) above
Skp2, sequence (Q13616 whole entry partner, species assumed): as the sequence (Q13616 whole entry partner, species assumed) above
Skp2, sequence (P62877 whole entry partner, species assumed): as the sequence (P62877 whole entry partner, species assumed) above
Description: as §1, §2, §3

[3] = Table 11, with spread, read-out: FP IC50/μM
[4] = Tables 1, 3, 7, 8, 10 nM fluorescein-tagged IκB peptide, read-out: FP Assay IC50/μM

## COC(=O)N[C@H](CC(=O)O)C(=O)N[C@@H](CCC(=O)O)C(=O)NCC(=O)N[C@@H](Cc1cccc(F)c1)C(=O)N[C@@H](Cc1c[nH]c2ccccc12)C(=O)N[C@@H](CCC(=O)O)C(N)=O [UBP020, MeO(CO)-dEGF(3F)WE-NH2] (Moc-[dD]EG[Phe(3-F)]WE-NH2)
βTrCP [1]; [3]
  IC50: 0.076 ± 0.014 µM
βTrCP [2]
  Biotin Pulldown Assay 10 μM: reduces/
  Biotin Pulldown Assay 100 μM: inhibits
FBW7/Skp1
  inhibition at 100 µM: 8%
  inhibition at 10 µM: 6%
β-TrCP1/Skp1
  Ub Assay 10 μM: inhibits/
  Ub Assay 100 μM: inhibits
Skp2
  inhibition at 100 µM: 16%
  inhibition at 10 µM: 0%

## CC(=O)N[C@H](CC(=O)O)C(=O)N[C@@H](CCC(=O)O)C(=O)NCC(=O)N[C@@H](Cc1cccc(F)c1)C(=O)N[C@@H](Cc1cccc2ccccc12)C(=O)N[C@@H](CCC(=O)O)C(N)=O [UBP016, Ac-dEGF(3F)1NalE-NH2] (Ac-[dD]EG[Phe(3-F)][1Nal]E-NH2)
βTrCP [1]; [3]
  IC50: 0.112 ± 0.017 µM
βTrCP [2]
  Biotin Pulldown Assay 10 μM: reduces/
  Biotin Pulldown Assay 100 μM: inhibits
FBW7/Skp1
  inhibition at 100 µM: 8%
  inhibition at 10 µM: 3%
β-TrCP1/Skp1
  Ub Assay 10 μM: reduces/
  Ub Assay 100 μM: inhibits
Skp2
  inhibition at 100 µM: 7%
  inhibition at 10 µM: 0%

## Cc1ccc(S(=O)(=O)N[C@H](CC(=O)O)C(=O)N[C@@H](CCC(=O)O)C(=O)NCC(=O)N[C@@H](Cc2cccc(Cl)c2)C(=O)N[C@@H](Cc2c[nH]c3ccccc23)C(=O)N(C)[C@@H](CCC(=O)O)C(N)=O)cc1 [UBP033, Ts-dEGF(3Cl)WE(Me)-NH2] (Tos-[dD]EG[Phe(3-Cl)]W[NMeE]-NH2)
βTrCP [1]; [4]
  IC50: 0.017 µM
βTrCP [2]
  Biotin Pulldown Assay 100 μM: inhibits
FBW7/Skp1
  inhibition at 100 µM: 11%
  inhibition at 10 µM: 7%
β-TrCP1/Skp1
  Ub Assay 100 μM: inhibits
Skp2
  inhibition at 100 µM: 10%
  inhibition at 10 µM: 0%

## Cc1ccc(S(=O)(=O)N[C@H](CC(=O)O)C(=O)N[C@@H](CC(=O)O)C(=O)NCC(=O)N[C@@H](Cc2cccc(F)c2)C(=O)N[C@@H](Cc2c[nH]c3ccccc23)C(=O)N[C@@H](CC(=O)O)C(N)=O)cc1 [UBP028, Ts-dDGF(3F)WD-NH2] (Tos-[dD]DG[Phe(3-F)]WD-NH2)
βTrCP [1]; [3]
  IC50: 0.081 ± 0.02 µM
βTrCP [1]; [4]
  IC50: 0.081 µM
βTrCP [2]
  Biotin Pulldown Assay 10 μM: reduces/
  Biotin Pulldown Assay 100 μM: inhibits
FBW7/Skp1
  inhibition at 100 µM: 10%
  inhibition at 10 µM: 4%
β-TrCP1/Skp1
  Ub Assay 10 μM: inhibits/
  Ub Assay 100 μM: inhibits
Skp2
  inhibition at 100 µM: 14%
  inhibition at 10 µM: 0%

## CCCCOc1ccc(S(=O)(=O)N[C@H](CC(=O)O)C(=O)N[C@@H](CCC(=O)O)C(=O)NCC(=O)N[C@@H](Cc2cccc(F)c2)C(=O)N[C@@H](Cc2c[nH]c3ccccc23)C(=O)N[C@@H](CCC(=O)O)C(N)=O)cc1 [UBP030, 4-(BuO)-PhSO2-dEGF(3F)WE-NH2] (X1-[dD]EG[Phe(3-F)]WE-NH2)
βTrCP [1]; [3]
  IC50: 0.056 ± 0.008 µM
βTrCP [1]; [4]
  IC50: 0.056 µM
βTrCP [2]
  Biotin Pulldown Assay 10 μM: reduces/
  Biotin Pulldown Assay 100 μM: inhibits
FBW7/Skp1
  inhibition at 100 µM: 12%
  inhibition at 10 µM: 7%
β-TrCP1/Skp1
  Ub Assay 10 μM: reduces/
  Ub Assay 100 μM: inhibits
Skp2
  inhibition at 100 µM: 13%
  inhibition at 10 µM: 0%

## Cc1ccc(S(=O)(=O)N[C@H](CC(=O)O)C(=O)N[C@@H](CCC(=O)O)C(=O)NCC(=O)N[C@@H](Cc2cccc(F)c2)C(=O)N[C@@H](Cc2c[nH]c3ccccc23)C(=O)N[C@@H](CC(=O)O)C(N)=O)cc1 [UBP027, Ts-dEGF(3F)WD-NH2] (Tos-[dD]EG[Phe(3-F)]WD-NH2)
βTrCP [1]; [3]
  IC50: 0.034 ± 0.005 µM
βTrCP [1]; [4]
  IC50: 0.034 µM
βTrCP [2]
  Biotin Pulldown Assay 10 μM: s. reduces/
  Biotin Pulldown Assay 100 μM: inhibits
FBW7/Skp1
  inhibition at 100 µM: 8%
  inhibition at 10 µM: 3%
β-TrCP1/Skp1
  Ub Assay 10 μM: inhibits/
  Ub Assay 100 μM: inhibits
Skp2
  inhibition at 100 µM: 6%
  inhibition at 10 µM: 4%

## NC(=O)[C@H](CCC(=O)O)NC(=O)[C@H](Cc1ccccc1)NC(=O)[C@H](Cc1ccccc1)NC(=O)CNC(=O)[C@H](CCC(=O)O)NC(=O)CCC(=O)O [UBP002, Suc-EGFFE-NH2] (Suc-EGFFE-NH2)
βTrCP [1]; [3]
  IC50: 3.18 ± 0.357 µM
βTrCP [1]; Tables 1, 3, 7, 8, 10 nM fluorescein-tagged IκB peptide
  FP Assay IC50/μM: low μM inhibitor
βTrCP [2]
  Biotin Pulldown Assay 10 μM: no effect/
  Biotin Pulldown Assay 100 μM: reduces
FBW7/Skp1
  inhibition at 100 µM: 0%
  inhibition at 10 µM: 0%
β-TrCP1/Skp1
  Ub Assay 10 μM: reduces/
  Ub Assay 100 μM: inhibits
Skp2
  inhibition at 100 µM: 0%
  inhibition at 10 µM: 14%

## Cc1ccc(S(=O)(=O)N[C@H](CC(=O)O)C(=O)N[C@@H](CCC(=O)O)C(=O)NCC(=O)N[C@@H](Cc2cccc(Cl)c2)C(=O)N[C@@H](Cc2c[nH]c3ccccc23)C(=O)N[C@@H](CCC(=O)O)C(N)=O)cc1 [UBP034, Ts-dEGF(3Cl)WE-NH2] (Tos-[dD]EG[Phe(3-Cl)]WE-NH2)
βTrCP [1]; [3]
  IC50: 0.01 ± 0.002 µM
βTrCP [2]
  Biotin Pulldown Assay 10 μM: s. reduces/
  Biotin Pulldown Assay 100 μM: inhibits
FBW7/Skp1
  inhibition at 100 µM: 6%
  inhibition at 10 µM: 8%
β-TrCP1/Skp1
  Ub Assay 10 μM: inhibits/
  Ub Assay 100 μM: inhibits
Skp2
  inhibition at 100 µM: 0%
  inhibition at 10 µM: 0%

## CC(=O)N[C@H](CC(=O)O)C(=O)N[C@@H](CCC(=O)O)C(=O)NCC(=O)N[C@@H](Cc1cccc(F)c1)C(=O)N[C@@H](Cc1c[nH]c2ccccc12)C(=O)N[C@@H](CCC(=O)O)C(N)=O [UBP017, Ac-dEGF(3F)WE-NH2] (Ac-[dD]EG[Phe(3-F)]WE-NH2)
βTrCP [1]; [3]
  IC50: 0.102 ± 0.017 µM
βTrCP [1]; [4]
  IC50: 0.102 µM
βTrCP [2]
  Biotin Pulldown Assay 10 μM: reduces/
  Biotin Pulldown Assay 100 μM: inhibits
FBW7/Skp1
  inhibition at 100 µM: 0%
  inhibition at 10 µM: 3%
β-TrCP1/Skp1
  Ub Assay 10 μM: reduces/
  Ub Assay 100 μM: inhibits
Skp2
  inhibition at 100 µM: 27%
  inhibition at 10 µM: 10%
